Where “and” joins values, the source holds several entries; their conditions need not be identical. Identical values can stand only once. Entries after “also recorded” stand apart in the source; their conditions may differ. Counter-ions that a name gives are not always drawn. Like-named read-outs stand apart in the source and are kept apart here.
Tests used:
[1] = test system: LPS-induced acute lung injury (ALI); assay: Mouse model of LPS-induced ALI, BALF cell count and BALF protein; type: in vivo; details: for percent reduction in LPS-induced increase in BALF cell count / percent reduction in LPS-induced increase in BALF protein: mean ± SEM
Description: LPS was instilled into the trachea of anesthetized mice. […] The efficacy endpoints were total cell counts and total protein in BALF. All studies were conducted using vehicle negative controls and dexamethasone (5 mg/kg IP at T=0 and 6) as a positive control. Data were analyzed by 1-way ANOVA followed by Tukey's multiple comparison test (GRAPHPAD PRISM® software, version 6.05). […] Reductions in BALF total protein were also observed. […]

[2] = PK of NAV-A after IP dosing of NAV-B to mice; type: in vivo, mouse; details: six-hour period after IP NAV-B 43 mg/kg
Description: (§1) The PK profile of NAV-A was determined following intravenous (IV) and intraperitoneal (IP) administration of prodrug NAV-B to rats and mice, respectively. […] In this experiment, only the appearance and PK profile of NAV-A was followed, using an established LC/MS method. […] Of note was the very rapid appearance of NAV-A in plasma of the rats receiving NAV-B IV; the highest plasma concentration observed was at five minutes post-dose, the first time point measured. […] Near peak plasma levels of NAV-A were observed within 30 minutes.

[3] = PK of NAV-A after IV dosing of NAV-B to rats; type: in vivo, rat
Description: as §1

ARF6 = ARF6 (Homo sapiens, UniProt P62330); assay: ARF6 inhibition, biochemical fluorometric nucleotide exchange assay
ARF6, sequence (P62330 whole entry, species assumed): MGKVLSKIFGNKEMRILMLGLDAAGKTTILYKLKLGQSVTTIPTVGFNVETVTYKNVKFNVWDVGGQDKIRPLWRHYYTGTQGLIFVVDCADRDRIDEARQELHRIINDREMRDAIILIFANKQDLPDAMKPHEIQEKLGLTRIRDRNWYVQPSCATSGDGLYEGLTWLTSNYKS
Source text: These ARF6 inhibitors were discovered using a high-throughput biochemical, fluorometric nucleotide exchange assay to screen 100,000 compounds from a commercially available compound library. Medicinal chemistry optimization efforts have also been conducted. In some embodiments, the clinical potential of the discovered small molecule ARF6 inhibitors can be limited by poor solubility. Accordingly, the synthesis and development of water soluble prodrugs of ARF6 inhibitors can be advantageous. […]

[4] = Solubility in water and PBS pH 7.4 (Tables 1 and 2); type: physicochemical
[5] = test system: Acinetobacter baumannii (AB) HUMC1; type: in vivo, mouse
Description: Briefly, CD-1 male mice were made neutropenic with 200 mg/kg cyclophosphamide and 250 mg/kg cortisone acetate (in 0.05% Tween 80) on Days −2 and +3. On Day 0, neutropenic mice were infected with Acinetobacter baumannii (AB) HUMC1 (virulent strain; see Luo G, et al. J Antimicrob Chemother. 2012; 67:1439-45 and Luo G, et al. PloS one. 2012; 7:e29446) via inhalation. Treatment with “NAV-” compound was initiated at three hours post infection.
Mice can be made neutropenic by injecting them with cyclophosphamide (200 mg/kg IP) and cortisone acetate (250 mg/kg, subcutaneously) on day −2 and +3 relative to infection. To induce AB pneumonia, neutropenic mice can be infected by aerosolizing AB into an inhalational chamber for one hour through a nebulizer as previously described (see Luo G, et al. J Antimicrob Chemother. 2012; 67:1439-45). Dosing and frequency of treatment can be dictated by the PK and ALI studies conducted in Example 6. Placebo mice can receive vehicle. […] Treatment can begin three hours after infection and continue through Day +7, and survival of mice (the primary endpoint) can be followed for 28 days post-infection. Each group may comprise 10 mice and each experiment may be repeated once (for a total of 20 mice per treatment group) to detect a three-day difference in survival by the Log Rank test (α=0.05).

[6] = Solubility of ARF6 prodrugs in various vehicles (Table 4); type: physicochemical
Plasmodium berghei ANKA = assay: Mouse model of cerebral malaria; details: NAV-B 42.75 mg/kg IP daily for 11 days from day 3; 14 days post-infection; dihydrochloride
Source text: Mice were infected with Plasmodium berghei ANKA on day 0. Treatment was initiated on day 3. […] Surviving mice were sacrificed on day 14.

alkaline phosphatase = assay: Alkaline phosphatase substrate; type: in vitro ADME; details: metabolized to active metabolite NAV-AAC′
Stability in solution = type: physicochemical; details: room temperature, protected from light
[7] = test system: multidrug-resistant Pseudomonas aeruginosa (PA); assay: Multidrug-resistant Pseudomonas aeruginosa mouse model of pneumonia; type: in vivo; details: NAV-AAR′ 38 and 64 mg/kg subcutaneous once daily for 6 days
Description: NAV-AAR′ is also active in a multidrug-resistant Pseudomonas aeruginosa (PA) mouse model of pneumonia. […] NAV-AAR′ was administered by subcutaneous injection once daily for 6 days. The antibiotic meropenem was ineffective against MDR PA in this model.

[8] = Table 1, water, read-out: Solubility Water
[9] = aqueous buffer, Table 1, PBS pH 7.4, read-out: Solubility PBS pH 7.4
[10] = NAV-AAR′ 38 mg/kg or 64 mg/kg intravenous

O=c1cc(-c2ccc([N+](=O)[O-])cc2O)n2nc(Cc3ccccc3)c(-c3ccc(Cl)cc3)c2[nH]1 [NAV-A, 2-Benzyl-3-(4-chlorophenyl)-7-(2-hydroxy-4-nitro-phenyl)-4H-pyrazolo[1,5-a]pyrimidin-5-one]
percent reduction in LPS-induced increase in BALF cell count ([1]; 30 mg/kg IP, T = 0): 57 ± 9%
percent reduction in LPS-induced increase in BALF protein ([1]; 30 mg/kg IP, T = 0): 36 ± 13%
percent reduction in LPS-induced increase in BALF cell count ([1]; 30 mg/kg IP, T = 3): 55 ± 3%
percent reduction in LPS-induced increase in BALF protein ([1]; 30 mg/kg IP, T = 3): 23 ± 12%
percent reduction in LPS-induced increase in BALF cell count ([1]; 60 mg/kg IP, T = 0): 95 ± 4%
percent reduction in LPS-induced increase in BALF protein ([1]; 60 mg/kg IP, T = 0): 46 ± 24%
percent reduction in LPS-induced increase in BALF cell count ([1]; 60 mg/kg IP, T = 3): 91 ± 1%
percent reduction in LPS-induced increase in BALF protein ([1]; 60 mg/kg IP, T = 3): 55 ± 6%
BALF total protein ([1]; NAV-A IP): Reductions
total number of cells in BALF ([1]; NAV-A IP 60 mg/kg (T=0), 30 mg/kg (T=3), 60 mg/kg (T=3)): significant decreases
plasma levels of NAV-A [2]: high and sustained plasma levels
time of highest plasma concentration observed ([3]; NAV-A after IV NAV-B, rats, first time point measured): five
exposure of NAV-A ([3]; after administration of NAV-B): excellent exposure
IC50 (ARF6; Table 1, read-out: ARF6 IC50): 2700 nM
solubility [4, 8]: 35 µM
solubility [4, 9]: 8 µM
appearance and weight gain of treated mice ([5]; NAV-A 30 mg/kg IP once daily): appeared healthy with normal weight gain
survival ([5]; NAV-A 30 mg/kg IP once daily for seven days, from 3 h post infection, DMA/PEG300 vehicle): 50%

NCCCC[C@H](N)C(=O)Oc1cc([N+](=O)[O-])ccc1-c1cc(=O)[nH]c2c(-c3ccc(Cl)cc3)c(Cc3ccccc3)nn12 [NAV-B, [2-[2-benzyl-3-(4-chlorophenyl)-5-oxo-4H-pyrazolo[1,5-a]pyrimidin-7-yl]-5-nitro-phenyl] (2S)-2,6-diaminohexanoate dihydrochloride]
concentration of cells in BALF ([1]; NAV-B 42.75 mg/kg IP): significant effect
concentration of protein in BALF ([1]; NAV-B 42.75 mg/kg IP): significant effect
reduction in LPS-induced BALF cell count ([1]; NAV-B 42.75 mg/kg IP at T=0 (equivalent to 30 mg/kg NAV-A), FIG. 10A marks a and b, dihydrochloride): 62% and 100%
reduction in BALF cell count ([1]; NAV-B 43 mg/kg IP at T=0): 70%
solubility ([6]; 20 mM Na citrate buffer, pH 3.1, aqueous buffer, kinetic from dmso stock, diluted from 10 mM solution in DMSO, read-out: Solubility (μM) 20 mM Na Citrate, pH 3.1): 280 µM
solubility ([6]; 0.1% Tween 80 in D5W, aqueous with cosolvent or surfactant or cyclodextrin, kinetic from dmso stock, diluted from 10 mM solution in DMSO, read-out: Solubility (μM) 0.1% Tween 80 in D5W): 42 µM
solubility ([6]; DPBS, pH 7.4, aqueous buffer, kinetic from dmso stock, diluted from 10 mM solution in DMSO, read-out: Solubility (μM) DPBS, pH 7.4): 1 µM
solubility ([6]; saline or isotonic, thermodynamic from solid, D5W, prepared from powder, read-out: Solubility (μM) D5W Prepared from powder): 14000 µM
solubility ([6]; water, kinetic from dmso stock, diluted from 10 mM solution in DMSO, read-out: Solubility (μM) H2O): 400 µM
IC50 (ARF6; Table 1, read-out: ARF6 IC50): 2600 nM
IC50 (ARF6; Table 4, read-out: ARF6 inhibition IC50): 2600 nM
solubility [4, 8]: 425 µM
solubility [4, 9]: 1.7 µM
survival of malaria-infected mice (Plasmodium berghei ANKA): reduced mortality; also recorded: significant improvement in survival
survival ([5]; NAV-B 42.75 mg/kg IP once daily for 7 days (equivalent to NAV-A 30 mg/kg), normal saline vehicle): 90%
solubility (Aqueous solubility; acidic aqueous media, aqueous buffer): > 50 mg/mL

Cc1ccc(-c2c[nH]c3c(-c4ccc(Cl)cc4)c(Cc4ccccc4)nn3c2=O)c(OP(=O)([O-])[O-])c1.[Na+].[Na+] [NAV-AAR′]
number of total (nucleated) cells in BALF [1, 10]: significant reductions; also recorded: decrease
protein concentration in BALF [1, 10]: significant reductions; also recorded: decrease
substrate for alkaline phosphatase (alkaline phosphatase): substrate for alkaline phosphatase
stable in solution (Stability in solution): up to 4 months
IC50 (ARF6; Table 2, read-out: ARF6 IC50): 1000 to 2000 nM
IC50 (ARF6; approximately, read-out: ARF6 IC50): 1000 to 2000 nM
solubility ([4]; Table 2, water, read-out: Solubility Water): > 50 mg/mL
solubility (Aqueous solubility): ≤ 50 mg/mL
survival in MDR PA pneumonia [7]: improve survival; also recorded: increase in survival
